# Source: PMC2859624 (Progress in neuro-psychopharmacology & biological psychiatry, 2010)
# Like-named read-outs stand apart in the source and are kept apart here.
# Key:
# α1β3γ2 GABAA receptors [1] = target: T1, α1β3γ2 GABAA receptors (Rattus norvegicus, UniProt P18508+P62813); assay type: cell-based
# α3β3γ2 GABAA receptors [2] = target: T2, α3β3γ2 GABAA receptors (Rattus norvegicus, UniProt P18508+P20236); assay type: cell-based; settings: for remaining activity at 0.1 µM: read-out: % of control current, α3β3γ2, 100 nM, EC3 GABA, mean ± SEM
# α2β3γ2 GABAA receptors [3] = target: T3, α2β3γ2 GABAA receptors (Rattus norvegicus, UniProt P18508+P23576); assay type: cell-based; settings: for % of control current, α2β3γ2: 100 nM, EC3 GABA, mean ± SEM, 0.1 µM
# male Wistar rats [4] = experiment: Morris water maze; assay type: in vivo, rat; settings: for platform zone entries during the probe trial: after five-day treatment at 30 mg/kg i.p.; for overall influence on water maze learning parameters (acquisition): 5 days
# α5β3γ2 GABAA receptors [5] = target: T4, α5β3γ2 GABAA receptors (Rattus norvegicus, UniProt P18508+P19969); assay type: cell-based; settings: for % of control current, α5β3γ2: 100 nM, EC3 GABA, mean ± SEM
# male Wistar rats [6] = settings: ref Savić et al., 2008b, cited from earlier work
# male Wistar rats [7] = settings: 30 mg/kg; ref Savić et al., 2008b; cited from earlier work
# [8] = target: human GABAA receptor containing α6 subunit (BZ site) (Homo sapiens, UniProt P18507+Q16445); experiment: Competition binding assay with [3H]flunitrazepam; settings: read-out: Ki α6, transfected HEK 293T, duplicate
# [9] = target: human GABAA receptor containing α5 subunit (BZ site) (Homo sapiens, UniProt P18507+P31644); experiment: Competition binding assay with [3H]flunitrazepam
# α1β3γ2 GABAA receptors [10] = target: T1, α1β3γ2 GABAA receptors; settings: 100 nM, EC3 GABA, mean ± SEM; ref Rivas et al., 2009; cited from earlier work
# male Wistar rats [11] = experiment: Spontaneous locomotor activity; settings: for dose inducing a hypolocomotor effect in the SLA: i.p.; for effect on total distance (locomotion), 30 min: Dunnett's test; for effect on total distance travelled during 45 min: 20 min before test, vs solvent
# α3β3γ2 GABAA receptors [12] = target: T2, α3β3γ2 GABAA receptors; settings: 100 nM, EC3 GABA, mean ± SEM; ref Rivas et al., 2009; cited from earlier work
# α5β3γ2 GABAA receptors [13] = target: T4, α5β3γ2 GABAA receptors; settings: 100 nM, EC3 GABA, mean ± SEM; ref Rivas et al., 2009; cited from earlier work
# male Wistar rats [14] = experiment: Elevated plus maze; assay type: in vivo, rat; settings: for effect on percentage of time on open arms: post hoc p 0.032
# α2β3γ2 GABAA receptors [15] = target: T3, α2β3γ2 GABAA receptors; settings: 100 nM, EC3 GABA, mean ± SEM; ref Rivas et al., 2009; cited from earlier work
# [16] = target: human GABAA receptor containing α3 subunit (BZ site) (Homo sapiens, UniProt P18507+P34903); experiment: Competition binding assay with [3H]flunitrazepam; settings: read-out: Ki α3, transfected HEK 293T, duplicate
# [17] = target: human GABAA receptor containing α4 subunit (BZ site); settings: read-out: Ki α4; second independent set of experiments
# [18] = read-out: % of control current, α1β3γ2
# [19] = zolpidem 0.5 mg/kg during acquisition, ±SEM
# [20] = zolpidem 1.0 mg/kg during acquisition, ±SEM
# [21] = zolpidem 2.0 mg/kg during acquisition, ±SEM
# [22] = zolpidem 2.0 mg/kg during acquisition, ±SEM, P<0.05 vs ZOL 0.5
compound,measurement,setting,value
"C#Cc1ccc2c(c1)C(c1ccccc1F)=NC(C)c1c(C(=O)OCC)ncn1-2 (centres unmarked) [SH-053-S-CH3-2'F, 8-ethynyl-6-(2-fluorophenyl)-4-methyl-4H-2,5,10b-triaza-benzo[e]azulene-3-carboxylic acid ethyl ester]","% of control current, α1β3γ2","α1β3γ2 GABAA receptors [1]; 100 nM, EC3 GABA, mean ± SEM",non-significant changes relative to control current
same,remaining activity at 1 µM,α1β3γ2 GABAA receptors [1]; [18],164 ± 6%
same,remaining activity at 0.1 µM,α3β3γ2 GABAA receptors [2],138 ± 5%
same,"% of control current, α2β3γ2",α2β3γ2 GABAA receptors [3],169 ± 5%
same,platform zone entries during the probe trial,male Wistar rats [4],lack of incapacitating consequences
same,"% of control current, α5β3γ2",α5β3γ2 GABAA receptors [5]; 0.1 µM,218 ± 4%
same,effect on locomotor activity,male Wistar rats [6]; 30 mg/kg,significant decrease of locomotor activity
same,dose inducing a hypolocomotor effect in the SLA,male Wistar rats [6],30 mg/kg
same,effect on percentage of open arm entries,male Wistar rats [7],significant effect
same,effect on percentage of time on open arms,male Wistar rats [7],significant effect
same,effects on general activity-related parameters,male Wistar rats [7],without concomitant effects
same,Ki,[8],> 5 µM
Cc1ccc(-c2nc3ccc(C)cn3c2CC(=O)N(C)C)cc1 [zolpidem],remaining activity at 0.1 µM,α1β3γ2 GABAA receptors [1]; [18],180 ± 14%
same,Ki,"[9]; read-out: Ki α5, [3H]flunitrazepam, transfected HEK 293T, duplicate",> 10 µM
same,overall influence on water maze learning parameters (acquisition),"male Wistar rats [4]; 0.5 mg/kg i.p. daily, vs control",different related to control
same,percent of distance travelled in the NE quadrant that was in the target region,"male Wistar rats [4]; 2 mg/kg i.p., day 5 of acquisition, chance 40%",40.5%
same,overall influence on water maze learning parameters (acquisition),"male Wistar rats [4]; 1 and 2 mg/kg i.p. daily, vs 0.5 mg/kg",behaviorally impaired related to 0.5 mg/kg zolpidem
same,"Peripheral ring distance, probe trial",male Wistar rats [4]; [19],4.16±0.61 m
same,"Peripheral ring time, probe trial",male Wistar rats [4]; [19],33.48 ± 3.68 s
same,"Platform distance, probe trial",male Wistar rats [4]; [19],0.097±0.031 m
same,"Platform number of entries, probe trial",male Wistar rats [4]; [19],1.25±0.41
same,"Platform quadrant (NE) distance, probe trial",male Wistar rats [4]; [19],2.41±0.29 m
same,"Platform quadrant (NE) time, probe trial",male Wistar rats [4]; [19],11.86 ± 1.44 s
same,"Platform ring distance, probe trial",male Wistar rats [4]; [19],5.27±0.68 m
same,"Platform ring time, probe trial",male Wistar rats [4]; [19],21.46 ± 3.05 s
same,"Target region distance, probe trial",male Wistar rats [4]; [19],1.51±0.27 m
same,"Target region time, probe trial",male Wistar rats [4]; [19],7.26 ± 1.36 s
same,"Peripheral ring distance, probe trial",male Wistar rats [4]; [20],6.09±0.89 m
same,"Peripheral ring time, probe trial",male Wistar rats [4]; [20],39.86 ± 1.67 s
same,"Platform distance, probe trial",male Wistar rats [4]; [20],0.047±0.028 m
same,"Platform number of entries, probe trial",male Wistar rats [4]; [20],0.38±0.18
same,"Platform quadrant (NE) distance, probe trial",male Wistar rats [4]; [20],2.18±0.51 m
same,"Platform ring distance, probe trial",male Wistar rats [4]; [20],4.48±0.31 m
same,"Platform ring time, probe trial",male Wistar rats [4]; [20],17.31 ± 1.38 s
same,"Target region distance, probe trial",male Wistar rats [4]; [20],1.12±0.14 m
same,"Target region time, probe trial","male Wistar rats [4]; zolpidem 1.0 mg/kg during acquisition, ±SEM, P<0.05 vs ZOL 0.5",4.03 ± 0.52 s
same,"Peripheral ring time, probe trial",male Wistar rats [4]; [21],42.80 ± 3.35 s
same,"Platform distance, probe trial",male Wistar rats [4]; [21],0.053±0.023 m
same,"Platform number of entries, probe trial",male Wistar rats [4]; [21],0.50±0.19
same,"Platform quadrant (NE) distance, probe trial",male Wistar rats [4]; [21],2.22±0.44 m
same,"Platform ring distance, probe trial",male Wistar rats [4]; [21],4.00±0.65 m
same,"Platform ring time, probe trial",male Wistar rats [4]; [21],14.50 ± 2.60 s
same,"Target region distance, probe trial",male Wistar rats [4]; [21],0.99±0.22 m
same,"Peripheral ring distance, probe trial",male Wistar rats [4]; [22],7.85±0.82 m
same,"Target region time, probe trial",male Wistar rats [4]; [22],3.51 ± 0.76 s
same,"% of control current, α5β3γ2",α5β3γ2 GABAA receptors [5],non-significant changes relative to control current
"C#Cc1ccc2c(c1)C(c1ccccc1F)=NCc1c(C(=O)OCC)ncn1-2 [JY-XHe-053, 8-ethynyl-6-(2-fluorophenyl)-4H-2,5,10b-triaza-benzo[e]azulene-3-carboxylic acid ethyl ester]","% of control current, α1β3γ2",α1β3γ2 GABAA receptors [10],169%
same,effect on central zone activity,"male Wistar rats [11]; 2.5-40 mg/kg i.p., 30 min",not discernible
same,effect on peripheral zone distance,"male Wistar rats [11]; 2.5-40 mg/kg i.p., 30 min, vs control",three higher doses of JYXHe-053 were significantly different from control
same,dose inducing a hypolocomotor effect in the SLA,male Wistar rats [11],≥ 10 mg/kg
same,"% of control current, α3β3γ2",α3β3γ2 GABAA receptors [12],345 ± 26%
same,"% of control current, α5β3γ2",α5β3γ2 GABAA receptors [13],220%
same,binding selectivity for GABAA receptors containing the α5 subunit,[9]; from Ki values,approximately 18 fold
same,general activity and anxiety-related parameters,male Wistar rats [14]; 2.5-40 mg/kg i.p.,devoid of significant behavioral activity
same,"% of control current, α2β3γ2",α2β3γ2 GABAA receptors [15],307 ± 14%
same,Ki,[16],0.0349 µM
"C#Cc1ccc2c(c1)C(c1ccccc1F)=NC(C)c1c(C(=O)OCC)ncn1-2 (centres unmarked) [SH-053-R-CH3-2'F, 8-ethynyl-6-(2-fluorophenyl)-4-methyl-4H-2,5,10b-triaza-benzo[e]azulene-3-carboxylic acid ethyl ester]",remaining activity at 0.1 µM,α1β3γ2 GABAA receptors [1]; [18],111 ± 2%
same,"effect on total distance (locomotion), 30 min",male Wistar rats [11]; 30 mg/kg i.p.,significantly depressed locomotion
same,effect on distance travelled in 5-min bins,"male Wistar rats [11]; 10, 20 and 30 mg/kg i.p., 6 intervals",did not significantly decrease locomotion
same,effect on central and peripheral zone locomotion,male Wistar rats [11]; 20 and 30 mg/kg i.p.,"decreased central, but not peripheral locomotion"
same,"% of control current, α3β3γ2","α3β3γ2 GABAA receptors [2]; 100 nM, EC3 GABA, mean ± SEM, 0.1 µM",125 ± 8%
same,"% of control current, α2β3γ2",α2β3γ2 GABAA receptors [3],124 ± 9%
same,platform zone entries during the probe trial,male Wistar rats [4],lack of incapacitating consequences
same,"% of control current, α5β3γ2",α5β3γ2 GABAA receptors [5]; 0.1 µM,183 ± 7%
same,general activity- or anxiety-related parameters,male Wistar rats [14]; doses up to 30 mg/kg i.p.,completely devoid of changes
"C#Cc1ccc2c(c1)C(c1ccccn1)=NCc1c(C(=O)OCC)ncn1-2 [SH-053-2'N, 8-ethynyl-6-(2’-pyrydine)-4H-2,5,10b-triaza-benzo[e]azulene-3-carboxylic acid ethyl ester]","% of control current, α1β3γ2",α1β3γ2 GABAA receptors [10],113 ± 2%
same,effect on total distance travelled during 45 min,male Wistar rats [11]; 30 mg/kg i.p.,activity-depressing effect of all three treatments was significant
same,dose inducing a hypolocomotor effect in the SLA,male Wistar rats [11],30 mg/kg
same,"% of control current, α3β3γ2",α3β3γ2 GABAA receptors [12],149 ± 3%
same,"% of control current, α5β3γ2",α5β3γ2 GABAA receptors [13],130 ± 3%
same,"latency to find the platform, single day","male Wistar rats [4]; 30 mg/kg i.p., vs control or SH-053-S-CH3-2'F 30 mg/kg",significantly longer search time on the fourth day
same,platform zone entries during the probe trial,male Wistar rats [4],lack of incapacitating consequences
same,effect on percentage of time on open arms,male Wistar rats [14]; 30 mg/kg i.p.,effective treatments
same,effect on total arm entries,"male Wistar rats [14]; 10, 20 and 30 mg/kg i.p., Dunnett's test vs solvent",significant effect of the two higher doses
same,effect on distance travelled in the open arms,"male Wistar rats [14]; 10, 20 and 30 mg/kg i.p., overall treatment effect",no significant effect of treatment
same,effect on percentage of open arm entries,"male Wistar rats [14]; 10, 20 and 30 mg/kg i.p., post hoc test",neither of the single doses was significant on its own
same,"% of control current, α2β3γ2",α2β3γ2 GABAA receptors [15],165 ± 2%
same,Ki,[17],> 5 µM
CN1C(=O)CN=C(c2ccccc2)c2cc(Cl)ccc21 [diazepam],remaining activity at 0.1 µM,α1β3γ2 GABAA receptors [1]; [18],246 ± 16%
same,effect on total distance travelled during 45 min,male Wistar rats [11]; 1.25 mg/kg i.p.,activity-depressing effect of all three treatments was significant
same,effect on distance travelled in 5-min bins,male Wistar rats [11]; 2 mg/kg i.p.,induced overt sedation during the first 10 min of recording
same,"effect on total distance (locomotion), 30 min",male Wistar rats [11]; 2 mg/kg i.p.,significantly depressed locomotion
same,remaining activity at 0.1 µM,α3β3γ2 GABAA receptors [2],461 ± 34%
same,remaining activity at 0.1 µM,"α2β3γ2 GABAA receptors [3]; read-out: % of control current, α2β3γ2, 100 nM, EC3 GABA, mean ± SEM",400 ± 22%
same,remaining activity at 0.1 µM,"α5β3γ2 GABAA receptors [5]; read-out: % of control current, α5β3γ2, 100 nM, EC3 GABA, mean ± SEM",322 ± 7%
same,effect on percentage of time on open arms,male Wistar rats [14]; 2.0 mg/kg i.p.,effective treatments
